This is an account of results in patent publication US4109009A, “Analgesic, relaxant, and anti-inflammatory cyclopentanol derivatives” (Roussel Uclaf, priority 1975, dated 1978).

Molecules are shown by their SMILES. Values after ≈ are worked out from the molar mass of the structure shown.

In experiment [1] the test system is guinea pig ileon. Description: Relaxant activity on the guinea pig ileon. To be noted: Cavia porcellus, Tyrode 37° C, concentration suppressing spontaneous contractions and relaxing the organ, read-out: Relaxant action. The protocol: B. Relaxant Activity on the guinea pig ileon
The relaxant effect of the test compounds was determined on guinea pig ileon using the procedure of Test A above. The terminal portion of the guinea pig ileon was removed and washed with Tyrode solution at 37° C. It was then suspended in an bath of oxygenated Tyrode liquid at 37° C and the contractions were registered on a collector attached to a Sanborn polygraph. The test product was added to bath of the organ with a low volume and the concentration which caused a suppression of spontaneous contractions and relaxed the organ, cuasing a lowering of the line of the base was considered to be relaxant.

Experiment [2] deals with prostaglandin E2. Description: Antagonistic activity to the contracturant effect of prostaglandin E2 (isolated rat colon, method of Magnus). To be noted: Krebs 37° C, product added 30 seconds before PGE2 (5 to 10 ng/ml), 50% inhibition of contractions. The protocol:
A. Antagonistic activity to the contracturant effect of prostaglandin E2
The antagonistic effect of the test compounds to the contracturant activity of prostaglandin E2 was determined by the method of Magnus wherein a portion of the colon adjacent to the caecum was removed from a rat and was washed with a Krebs solution at 37° C. The colon was then suspended in a bath of oxygenated Krebs liquid kept at 37° C and the contactions of the organ were registered with a collector attached to a Sanborn polygraph. The organ was first standarized with prostaglandin E2 to determine the concentration necessary to obtain a significant contraction (5 to 10 ng/ml). The antagonistic product was added to the bath 30 seconds before the standard dose of PGE2 and the intensity of the contraction was measured. The concentration of product which inhibited by 50% the contractions provoked by PGE2 was determined by the straight line effect-log of the dose and the CI50 is reported in Table I.

Experiment [3] relates to prostaglandin synthetases of lungs of guinea pigs. Description: Inhibitory effect against biosynthesis of prostaglandins from arachidonic acid (Vane). To be noted: guinea pig lung homogenate supernatant, arachidonic acid 10 μg, 30 minutes at 37° C; read-out on isolated rat colon; read-out: CI50 (the source's name). It counts as biochemical. From the text: D. Inhibitory effect against biosynthesis of prostaglandins
Synthesis of prostaglandins starting with arachidonic acid by means of prostaglandin synthetases of lungs of guinea pigs
This test used the procedure of Vane [Nature New-Biology, Vo. 231 (1971), p. 232-235] wherein the lungs of adult guinea pigs (two per series) were rapidly removed and washed with a modified, iced Bucher medium. The lung tissue was homogenized in a Turrax grinder in a minute and the homogenate was centrifuged for 20 minutes to 1200 g. The supernatant was used as a preparation of prostaglandin synthetases.
A solution of arachidonic acid in ethanol at a concentration of 10 mg/ml was diluted with a 0.2% aqueous sodium carbonate solution and was then diluted further with a modified Bucher medium to obtain a final acid concentration of 200 μg/ml. The biosynthesis inhibitors are put into aqueous on dilute alcohol (20% maximum) solutions. Tubes were prepared containing 1 ml of the prostaglandin synthetases preparation, 10 μg of arachidonic acid and 0.1 ml of inhibiting solution or, for the controls, an equal volume of water or dilute alcohol. The tubes were incubated with stirring for 30 minutes at 37° C in aerobic conditions and each test consisted of a tube containing a biosynthesis inhibitor, one biosynthesis control with incubated arachidonic acid and one control with non-incubated arachidonic acid. The latter control permitted a evaluation of amount of natural prostaglandins present in the ground lung and the results obtained with this control must therefore be taken away from the control of biosynthesis and from all the tests. The reactions are stopped by immersion in boiling water until the proteins are coagulated. The dosage of "prostaglandin like" activity was effected biologically on the isolated rat colon suspended in Krebs liquid, mixed to augment the specificity, with antagonists to other contracturant mediators susceptible to interfere. The antagonists were mepyramine, scopolamine, methysergide, phenoxybenzamine and propanolol.
A comparison of the results registered in the presence or absence of a test product permitted the calculation of the percentage of biosynthesis inhibition. The CI50 dose which inhibited by 50% the biosynthesis activity was graphically obtained by straight line representing the percent of inhibition with reference to the incubated controls against the log of the concentration in μg/ml and the results are reported in Table IV.

Experiment [4] relates to mice. Description: Analgesic activity -- stretching provoked by acetic acid (Koster et al). It counts as in vivo. The conditions noted are these: Mus musculus, 0.25 h, oral, one half hour before intraperitoneal acetic acid, 15 minute observation, dose reducing stretchings by 50%, read-out: DA50 (the source's name). The protocol:
C. Analgesic Activity -- stretching provoked by acetic acid
The test procedure was that of Koster et al wherein an interitoneal injection of aqueous acetic acid in a concentration of 1% at a dose of 100 mg/kg caused in mice repeated movements of strectching and twisting which can persist for more than 6 hours. Analgesics prevent or lessen the syndrome. The test products were orally administered one half hour before the acetic acid injection and the mice were fasted from the day before the tests. The stretching were counted for each mouse during a 15 minute observation period beginning right after the acetic acid injection and the analgesic affect was expressed as a percentage of protection with respect to the controls.

As for `CCCCC[C@@H](/C=C/[C@H]1CC[C@H](O)[C@@H]1C(=O)OC)OC1CCCCO1` (relative stereo) [I], the minimal effective concentration in experiment [1] amounted to 5 µg/mL.
With `CCCCC[C@H](O)/C=C/[C@H]1CC[C@@H](O)[C@@H]1C(=O)OCC` (relative stereo) [A], in experiment [2], the “CI50 against PGE2” value was 20 µg/mL (≈ 70.3 µM). For the same compound, in experiment [1], the minimal effective concentration turned out to be 20 µg/mL.
On to `CCCCC[C@@H](/C=C/[C@H]1CC[C@@H](O)[C@@H]1C(=O)CCC)OC1CCCCO1` (relative stereo) [Q], for which the minimal effective concentration in experiment [1] was 10 µg/mL.
Turning to `C#C[C@@](/C=C/[C@H]1CC[C@H](O)[C@@H]1C(=O)OCC)(CCCCC)OC1CCCCO1` (relative stereo) [O], the IC50 in experiment [3] came out at 229 µM.
On to `C#C[C@@](/C=C/[C@H]1CC[C@H](O)[C@@H]1C(=O)OCC)(CCCCC)OC1CCCCO1` (relative stereo) [Product O, Ethyl (1RS, 2SR, 5RS, 3'SR) (1'E) 2-hydroxy-5-(3'-α-tetrahydropyranyloxy-3'-ethynyl-1'-octenyl)-cyclopentanecarboxylate], for which, in experiment [1], the minimal effective concentration was 10 µg/mL.
For `CCCCC[C@@H](/C=C/[C@H]1CC[C@@H](O)[C@@H]1C(=O)OC)OC1CCCCO1` (relative stereo) [L], the minimal effective concentration in experiment [1] came out at 5 µg/mL.
As for `CCCCC[C@@H](/C=C/[C@H]1CC[C@@H](O)[C@@H]1C(=O)OCC)OC1CCCCO1` (relative stereo) [G], the IC50 in experiment [3] is 204 µM. The “CI50 against PGE2” value in experiment [2] was 20 µg/mL (≈ 54.3 µM). Besides, in experiment [1], the minimal effective concentration was determined as 20 µg/mL. In experiment [4], the ED50 was approximately 100 mg/kg.
Take `CCCCC[C@@H](/C=C/[C@H]1CC[C@H](O)[C@@H]1C(=O)CCC)OC1CCCCO1` (relative stereo) [S]: in experiment [3], the IC50 is 628 µM.
For the compound `CCCCC[C@@H](CC[C@H]1CC[C@@H](O)[C@@H]1C(=O)OCC)OC1CCCCO1` (relative stereo) [K], in experiment [1], the minimal effective concentration was determined as 5 µg/mL.
`CCCCCC(C)(O)/C=C/[C@H]1CC[C@H](O)[C@@H]1C(=O)OCC` (some centres unmarked) [E]: in experiment [3], the IC50 was 604 µM. Also, in experiment [1], the minimal effective concentration was 5 µg/mL.
For `CCCCC[C@@H](/C=C/[C@H]1CC[C@H](O)[C@@H]1C(=O)OCCC)OC1CCCCO1` (relative stereo) [J], the minimal effective concentration in experiment [1] was 10 µg/mL.
Regarding `CCCCCC(C)(O)/C=C/[C@H]1CC[C@@H](O)[C@@H]1C(=O)OCC` (some centres unmarked) [C], the IC50 in experiment [3] was determined as 503 µM. The minimal effective concentration in experiment [1] was found to be 1 µg/mL.
With `C#C[C@@](/C=C/[C@H]1CC[C@@H](O)[C@@H]1C(=O)OCC)(CCCCC)OC1CCCCO1` (relative stereo) [P], in experiment [3], the IC50 amounted to 382 µM. In experiment [1], the minimal effective concentration was found to be 5 µg/mL. In addition, the ED50 in experiment [4] is approximately 100 mg/kg.
In the case of `C#C[C@@](O)(/C=C/[C@H]1CC[C@H](O)[C@@H]1C(=O)OCC)CCCCC` (relative stereo) [N], the minimal effective concentration in experiment [1] amounted to 5 µg/mL.
Still for that read-out and setting: for `CCCCC[C@@H](CC[C@H]1CC[C@H](O)[C@@H]1C(=O)OCC)OC1CCCCO1` (relative stereo) [H] the value was 10 µg/mL.
Regarding `CCCCC[C@H](O)/C=C/[C@H]1CC[C@H](O)[C@@H]1C(=O)OCC` (relative stereo) [B], the IC50 in experiment [3] came out at 376 µM. Moreover, the minimal effective concentration in experiment [1] came out at 20 µg/mL. The ED50 in experiment [4] amounted to 100 mg/kg.
With `CCCCC[C@@H](/C=C/[C@H]1CC[C@H](O)[C@@H]1C(=O)OCC)OC1CCCCO1` (relative stereo) [F], the IC50 in experiment [3] came to 54 µM. Further, the “CI50 against PGE2” value in experiment [2] came out at 20 µg/mL (≈ 54.3 µM). In addition, the minimal effective concentration in experiment [1] amounted to 20 µg/mL. For the same compound, the ED50 in experiment [4] was approximately 100 mg/kg.
`CCCCC[C@@H](/C=C/[C@H]1CC[C@@H](O)[C@H]1C(=O)OCC)OC1CCCCO1` (relative stereo) [R]: the IC50 in experiment [3] is 542 µM.
On to `CCCCC[C@@H](/C=C/[C@H]1CC[C@@H](O)[C@@H]1C(=O)OCCC)OC1CCCCO1` (relative stereo) [M], for which, in experiment [3], the IC50 turned out to be 652 µM. For the same compound, in experiment [1], the minimal effective concentration is 5 µg/mL.
For the compound `CCCCCCCCCOC(=O)[C@H]1[C@@H](O)CC[C@@H]1/C=C/[C@@H](O)CCCCC` (relative stereo) [D], the IC50 in experiment [3] came to 523 µM. The minimal effective concentration in experiment [1] was 10 µg/mL.
